From patent publication US11008295B2, “Compounds having antiinfective, antitumoral and antifungal activity” (priority 2017, dated 2021)

Tests used:
C. glabrata = conditions: clinical strain; cited from earlier work
C. tropicalis = conditions: clinical strain; cited from earlier work
C. albicans = conditions: clinical strain; cited from earlier work
C. Krusei = conditions: clinical strain; cited from earlier work
A. niger = conditions: clinical strain; cited from earlier work
C. parapsilopsis = conditions: C. parapsilosis, clinical strain; cited from earlier work
A. fumigatus = conditions: clinical strain; cited from earlier work
A. flavus = conditions: clinical strain; cited from earlier work
C. guilliermondii = conditions: C. guillermondii, clinical strain; cited from earlier work
C. lusitaniae = conditions: clinical strain; cited from earlier work
A. terreus = conditions: clinical strain; cited from earlier work
T. pulmonis = experiment: Kirby-Bauer disk diffusion susceptibility test; format: cell-based, Tsukamurella pulmonis
Protocol: (§1) Bacterial strains, from clinical origin, were supplied by the National Center for Microbiology, Institute of Health Carlos III (Majadahonda, Madrid). They are detailed in Table I.
(§2) Bacterial cells suspension in sterile saline was prepared from a culture of 24-72 h, depending on bacterial species, in Mueller-Hinton Agar with 5% sheep blood. Each suspension was adjusted to a fixed size inoculum of 1-5×10^8 CFU/ml with a spectrophotometer (Ferraro, M J National Committee for Clinical Laboratory Standards. 2000).
(§3) Kirby-Bauer disk diffusion susceptibility test protocol was utilized to determine the sensitivity or resistance of pathogenic bacteria against the compounds and others antibiotics. The absence of growth around the disks is an indirect measure of the ability of this compound to inhibit an organism (Kirby, W. et al., Antibiotics Annu. 1956-1957:892). After 18 to 72 hours of incubation at […], with or without CO2, under aerobic or anaerobic conditions, depending on the bacterial species, halo of growth inhibition were obtained and evaluated.
(§4) Interpretation of susceptibility and resistance was based on the presence or absence of a zone of inhibition surrounding the disk. Kirby-Bauer disk diffusion susceptibility test is a common method which uses antibiotic-impregnated wafers to test whether bacteria are affected by antibiotics. The size of the zone of inhibition depends on how effective the antibiotic is at stopping the growth of the bacterium. A stronger antibiotic will create a larger zone, because a lower concentration of the antibiotic is enough to stop growth.

M. abscessus = experiment: Kirby-Bauer disk diffusion susceptibility test; format: cell-based, Mycobacterium abscessus; conditions: M. abscessus strain 690, isolation year 2012
Protocol: as §1, §2, §3, §4

B. cereus = experiment: Kirby-Bauer disk diffusion susceptibility test; format: cell-based, Bacillus cereus
Protocol: as §1, §2, §3, §4

N. carnea = experiment: Kirby-Bauer disk diffusion susceptibility test; format: cell-based, Nocardia carnea
Protocol: as §1, §2, §3, §4

S. aureus = experiment: Kirby-Bauer disk diffusion susceptibility test; format: cell-based
Protocol: as §1, §2, §3, §4

M. fortuitum = experiment: Kirby-Bauer disk diffusion susceptibility test; format: cell-based; conditions: M. fortuitum strain 1080, isolation year 2011
Protocol: as §1, §2, §3, §4

M. chelonae = experiment: Kirby-Bauer disk diffusion susceptibility test; format: cell-based; conditions: M. chelonae strain 870, isolation year 2011
Protocol: as §1, §2, §3, §4

E. coli = experiment: Kirby-Bauer disk diffusion susceptibility test; format: cell-based
Protocol: as §1, §2, §3, §4

N. cyriacigeorgica = experiment: Kirby-Bauer disk diffusion susceptibility test; format: cell-based
Protocol: as §1, §2, §3, §4

S. epidermidis = experiment: Kirby-Bauer disk diffusion susceptibility test; format: cell-based
Protocol: as §1, §2, §3, §4

A. baumannii = experiment: Kirby-Bauer disk diffusion susceptibility test; format: cell-based
Protocol: as §1, §2, §3, §4

P. aeruginosa = experiment: Kirby-Bauer disk diffusion susceptibility test; format: cell-based; conditions: P. aeruginosa strain 96, isolation year 2014
Protocol: as §1, §2, §3, §4

E. faecalis = experiment: Kirby-Bauer disk diffusion susceptibility test; format: cell-based
Protocol: as §1, §2, §3, §4

E. faecium = experiment: Kirby-Bauer disk diffusion susceptibility test; format: cell-based
Protocol: as §1, §2, §3, §4

[1] = T. pulmonis strain 40, isolation year 2015
[2] = T. pulmonis strain 1991, isolation year 2009
[3] = B. cereus strain 25, isolation year 2014
[4] = B. cereus strain 182, isolation year 2013
[5] = N. carnea strain 40, isolation year 2011
[6] = N. carnea strain 769, isolation year 2009
[7] = E. coli strain 29, isolation year 2012
[8] = E. coli strain 305, isolation year 2008
[9] = N cyriacigeorgica strain 199, isolation year 2005
[10] = N. cyriacigeorgica strain 30, isolation year 2005
Further: key: I = intermediate activity; S = susceptibility; R = Resistance.

Compound | Characteristics of the strains: susceptibility to the antifungal (C. glabrata) | Characteristics of the strains: susceptibility to the antifungal (C. tropicalis) | Characteristics of the strains: susceptibility to the antifungal (C. albicans) | Characteristics of the strains: susceptibility to the antifungal (C. Krusei) | Characteristics of the strains: susceptibility to the antifungal (A. niger) | Characteristics of the strains: susceptibility to the antifungal (C. parapsilopsis) | Characteristics of the strains: susceptibility to the antifungal (A. fumigatus) | Characteristics of the strains: susceptibility to the antifungal (A. flavus) | Characteristics of the strains: susceptibility to the antifungal (C. guilliermondii) | Characteristics of the strains: susceptibility to the antifungal (C. lusitaniae) | Characteristics of the strains: susceptibility to the antifungal (A. terreus) | Sensitivity or resistance of the strain to the antibiotic (T. pulmonis; [1]) | Sensitivity or resistance of the strain to the antibiotic (T. pulmonis; [2]) | Sensitivity or resistance of the strain to the antibiotic (M. abscessus) | Sensitivity or resistance of the strain to the antibiotic (N. carnea; [5]) | Sensitivity or resistance of the strain to the antibiotic (N. carnea; [6]) | Sensitivity or resistance of the strain to the antibiotic (M. fortuitum) | Sensitivity or resistance of the strain to the antibiotic (M. chelonae) | Sensitivity or resistance of the strain to the antibiotic (E. coli; [7]) | Sensitivity or resistance of the strain to the antibiotic (E. coli; [8]) | also measured
C[C@@H]1[C@H](O)[C@@H](C)/C=C/C=C/C=C/C=C/C=C/C=C/C=C/[C@H](O[C@@H]2O[C@H](C)[C@@H](O)[C@H](N)[C@@H]2O)C[C@@H]2O[C@](O)(C[C@@H](O)C[C@@H](O)[C@H](O)CC[C@@H](O)C[C@@H](O)CC(=O)O[C@H]1C)C[C@H](O)[C@H]2C(=O)O [Amphotericin B] | S | S | I | I | S | S | S | I | R | I | I | – | – | – | – | – | – | – | – | – | –
Clc1ccccc1C(c1ccccc1)(c1ccccc1)n1ccnc1 [Clotrimazole] | S | S | S | S | S | S | S | S | R | S | S | – | – | – | – | – | – | – | – | – | –
CC[C@H]1OC(=O)[C@H](C)[C@@H](O[C@H]2C[C@@](C)(OC)[C@@H](O)[C@H](C)O2)[C@H](C)[C@@H](O[C@@H]2O[C@H](C)C[C@H](N(C)C)[C@H]2O)[C@](C)(O)C[C@@H](C)C(=O)[C@H](C)[C@@H](O)[C@]1(C)O [ERI, Erythromycin] | – | – | – | – | – | – | – | – | – | – | – | R | S | S | R | R | R | R | S | S | Sensitivity or resistance of the strain to the antibiotic (B. cereus; [3]): R; Sensitivity or resistance of the strain to the antibiotic (B. cereus; [4]): R; Sensitivity or resistance of the strain to the antibiotic (S. aureus; S. aureus strain 282, isolation year 2005): R; Sensitivity or resistance of the strain to the antibiotic (S. aureus; S. aureus strain 890, isolation year 2010): R; Sensitivity or resistance of the strain to the antibiotic (N. cyriacigeorgica; [9]): R; Sensitivity or resistance of the strain to the antibiotic (N. cyriacigeorgica; [10]): R; Sensitivity or resistance of the strain to the antibiotic (S. epidermidis; S. epidermidis strain 188, isolation year 2009): S; Sensitivity or resistance of the strain to the antibiotic (S. epidermidis; S. epidermidis strain 982, isolation year 2006): R
OC(Cn1cncn1)(Cn1cncn1)c1ccc(F)cc1F [Fluconazole] | S | S | S | S | R | S | R | R | R | S | R | – | – | – | – | – | – | – | – | – | –
C[C@@H](O)[C@H]1C(=O)N2C(C(=O)O)=C(SCCN=CN)C[C@H]12 [IMP, Imipenem] | – | – | – | – | – | – | – | – | – | – | – | S | S | R | R | S | R | R | S | S | Sensitivity or resistance of the strain to the antibiotic (A. baumannii; A. baumannii strain 300, isolation year 2001): R; Sensitivity or resistance of the strain to the antibiotic (A. baumannii; A. baumannii strain 1301, isolation year 2009): S; Sensitivity or resistance of the strain to the antibiotic (N. cyriacigeorgica; [9]): R; Sensitivity or resistance of the strain to the antibiotic (N. cyriacigeorgica; [10]): S
CC(=O)N1CCN(c2ccc(OCC3COC(Cn4ccnc4)(c4ccc(Cl)cc4Cl)O3)cc2)CC1 (centres unmarked) [Ketoconazole] | S | S | S | S | S | S | S | S | R | S | S | – | – | – | – | – | – | – | – | – | –
CC(=O)NC[C@H]1CN(c2ccc(N3CCOCC3)c(F)c2)C(=O)O1 [LIN, Linezolid] | – | – | – | – | – | – | – | – | – | – | – | R | S | S | S | S | R | R | – | – | Sensitivity or resistance of the strain to the antibiotic (N. cyriacigeorgica; [9]): S; Sensitivity or resistance of the strain to the antibiotic (N. cyriacigeorgica; [10]): S; Sensitivity or resistance of the strain to the antibiotic (P. aeruginosa): S
Penicillin | – | – | – | – | – | – | – | – | – | – | – | – | – | R | – | – | R | R | R | R | Sensitivity or resistance of the strain to the antibiotic (B. cereus; [3]): S; Sensitivity or resistance of the strain to the antibiotic (B. cereus; [4]): S; Sensitivity or resistance of the strain to the antibiotic (E. faecalis; E. faecalis strain 52, isolation year 2006): R; Sensitivity or resistance of the strain to the antibiotic (E. faecalis; E. faecalis strain 1052, isolation year 2008): R; Sensitivity or resistance of the strain to the antibiotic (E. faecium; E. faecium strain 26, isolation year 2012): R; Sensitivity or resistance of the strain to the antibiotic (E. faecium; E. faecium strain 209, isolation year 2015): R
